Tests used:
rat B1R = target: T1, rat B1R (Rattus norvegicus, UniProt P97583); experiment: FLIPR Ca2+ functional study on bradykinin receptor 1 (rB1R CHO K1 cells); assay type: cell-based; settings: CHO-K1, % inhibition rat B1R at 10 μM, read-out: % inh. (rat B1R) 10 μM
T1 construct: expressed in transfected cells; host or cells: CHO K1 cells
T1 sequence (P97583 1-337): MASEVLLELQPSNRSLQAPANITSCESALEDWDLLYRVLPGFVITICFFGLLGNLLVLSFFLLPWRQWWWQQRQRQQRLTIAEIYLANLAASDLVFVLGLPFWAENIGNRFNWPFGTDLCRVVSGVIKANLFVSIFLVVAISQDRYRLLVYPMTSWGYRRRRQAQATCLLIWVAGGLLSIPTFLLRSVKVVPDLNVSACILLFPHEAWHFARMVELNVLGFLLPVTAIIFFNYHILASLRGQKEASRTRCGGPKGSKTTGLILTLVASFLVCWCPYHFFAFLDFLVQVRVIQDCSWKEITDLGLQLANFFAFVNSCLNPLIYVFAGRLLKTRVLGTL
How it was run: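 Antagonism was calculated as % of maximal inhibition of the Ca2+ rise triggered by agonist at EC80 (Lys-Des-Arg9-bradykinin for hB1R, Des-Arg9-bradykinin for rB1R), added 10-20 min after test compound (10 μM or serial dilutions for IC50) to Fluo-4-loaded transfected CHO K1 cells on FLIPR. Duplicates or triplicates, ≥2 independent runs.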

human B1R = target: T2, human B1R (Homo sapiens, UniProt P46663); experiment: FLIPR Ca2+ functional study on bradykinin receptor 1 (hB1R CHO K1 cells); assay type: cell-based; settings: % inhibition human B1R at 10 μM, read-out: % inh. (hum. B1R) 10 μM
T2 construct: expressed in transfected cells; host or cells: CHO K1 cells
T2 sequence (P46663 1-353): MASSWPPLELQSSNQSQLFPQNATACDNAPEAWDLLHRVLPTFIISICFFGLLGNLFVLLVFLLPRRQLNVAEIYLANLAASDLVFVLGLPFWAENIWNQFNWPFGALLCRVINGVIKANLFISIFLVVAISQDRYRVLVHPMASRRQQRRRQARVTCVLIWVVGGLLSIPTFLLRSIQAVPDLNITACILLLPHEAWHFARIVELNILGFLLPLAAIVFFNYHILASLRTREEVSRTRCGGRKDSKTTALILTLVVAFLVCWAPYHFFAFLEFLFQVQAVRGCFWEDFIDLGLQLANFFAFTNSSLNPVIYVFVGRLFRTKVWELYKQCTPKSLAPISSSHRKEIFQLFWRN
Method: The agonistic or antagonistic activity of substances can be quantified on the bradykinin receptor 1 (B1R) of the species human and rat using ectopically expressing cell lines (CHO K1 cells) and with the aid of a Ca^2+-sensitive dye (Fluo-4) using a fluorescent imaging plate reader (FLIPR). The indication in % activation is based on the Ca^2+ signal after addition of Lys-Des-Arg^9-bradykinin (0.5 nM) or Des-Arg^9-bradykinin (100 nM). Antagonists lead to suppression of the Ca^2+ influx after the addition of the agonist. % Inhibition compared with the maximum achievable inhibition is indicated.
The agonistic or antagonistic activity of substances can be determined on the bradykinin receptor 1 (B1R) of the species human and rat using the following assay. According to this assay, the Ca^2+ influx through the channel is quantified with the aid of a Ca^2+-sensitive dye (Fluo-4 type, Molecular Probes Europe BV, Leiden, Netherlands) using a Fluorescent Imaging Plate Reader (FLIPR, Molecular Devices, Sunnyvale, USA).
Chinese hamster ovary cells (CHO K1 cells) which have been stably transfected with the human B1R gene (hB1R cells) or with the B1R gene of the rat (rB1R cells) are used. For functional studies, the cells are plated out on black 96-well plates having a clear base (BD Biosciences, Heidelberg, Germany or Greiner, Frickenhausen, Germany) in a density of 20,000-35,000 cells/well. The cells are left overnight at 37° C. and with 5% CO2 in culture medium (hB1R cells: Nutrient Mixture Ham's F12, Gibco Invitrogen GmbH, Karlsruhe, Germany or DMEM, Sigma-Aldrich, Taufkirchen, Germany; rB1R cells: D-MEM/F12, Gibco Invitrogen GmbH, Karlsruhe, Germany), with 10 vol.% FBS (fetal bovine serum, Gibco Invitrogen GmbH, Karlsruhe, Germany or PAN Biotech GmbH, Aidenbach, Germany). On the following day, the cells are loaded for 60 minutes at 37° C. with 2.13 μM Fluo-4 (Molecular Probes Europe BV, Leiden, Netherlands) in HBSS buffer (Hank's buffered saline solution, Gibco Invitrogen GmbH, Karlsruhe, Germany) […] (Sigma-Aldrich, Taufkirchen, Germany) and 10 mM HEPES (Sigma-Aldrich, Taufkirchen, Germany). The plates are then washed twice with HBSS buffer, and HBSS buffer additionally containing 0.1% BSA (bovine serum albumin; Sigma-Aldrich, Taufkirchen, Germany), 5.6 mM glucose and 0.05% gelatin (Merck KGaA, Darmstadt, Germany) is added to the plates. After incubation for a further 20 minutes at room temperature, the plates are inserted into the FLIPR for Ca^2+ measurement. Alternatively, washing is carried out with buffer A (15 mM HEPES, 80 mM NaCl, 5 mM KCl, 1.2 mM CaCl2, 0.7 mM MgSO4, 2 g/l glucose, 2.5 mM probenecid) followed by loading with buffer A with added 2.5 μM Fluo-4 and 0.025% Pluronic F127 (Sigma-Aldrich, Taufkirchen, Germany). The cells are then washed twice with buffer A and incubated for 30 minutes at room temperature with buffer A additionally containing 0.05% BSA and 0.05% gelatin and are then inserted into the FLIPR for Ca^2+ measurement. The Ca^2+-dependent fluorescence is measured before and after the addition of substances (λex=488 nm, λem=540 nm). Quantification is carried out by measuring the highest fluorescence intensity (FC, fluorescence counts) over time.
The FLIPR protocol consists of two substance additions. Test substances (10 μM) are first pipetted onto the cells and the Ca^2+ influx is compared with the control (hB1R: Lys-Des-Arg^9-bradykinin>=50 nM; rB1R: Des-Arg^9-bradykinin 10 μM). This gives the activation in %, based on the Ca^2+ signal after addition of Lys-Des-Arg^9-bradykinin (>=50 nM) or Des-Arg^9-bradykinin (10 μM). After 10-20 minutes' incubation, Lys-Des-Arg^9-bradykinin (hB1R) or Des-Arg^9-bradykinin (rB1R) is applied in the concentration of the EC80, and the influx of Ca^2+ is likewise determined. Antagonists lead to suppression of the Ca^2+ influx. The % inhibition compared with the maximum achievable inhibition is calculated. […]

SMILES: COc1cc(C)c(S(=O)(=O)N(C)C(COc2ccnc(N3CCC4(CCN(c5ccncc5)CC4)CC3)n2)c2ccccc2)c(C)c1 (stereo not shown) [H_CC-037, 4-methoxy-N,2,6-trimethyl-N-[1-phenyl-2-[[2-[3-(4-pyridyl)-3,9-diazaspiro[5.5]undecan-9-yl]-4-pyrimidinyl]oxy]ethyl]benzenesulfonamide]
- inhibition at 10 µM (rat B1R): 102%
- inhibition at 10 µM (human B1R): 54%

SMILES: COc1cc(C)c(S(=O)(=O)N2CCCCC2COc2nccc(N(C)CCN3CCC(c4ccccc4)(N(C)C)CC3)n2)c(C)c1 (stereo not shown) [G_CC-004, N-[2-(4-dimethylamino-4-phenyl-1-piperidinyl)ethyl]-2-[[1-(4-methoxy-2,6-dimethylphenyl)sulfonyl-2-piperidinyl]methoxy]-N-methyl-4-pyrimidineamine]
- inhibition at 10 µM (rat B1R): 100%
- inhibition at 10 µM (human B1R): 100%

SMILES: COc1cc(C)c(S(=O)(=O)N2CCCCC2COc2nccc(N3CCC4(CCN(Cc5ccccc5)C4=O)CC3)n2)c(C)c1 (stereo not shown) [G_CC-040, 3-benzyl-8-[2-[[1-(4-methoxy-2,6-dimethylphenyl)sulfonyl-2-piperidinyl]methoxy]-4-pyrimidinyl]-3,8-diazaspiro[4.5]decan-4-one]
- inhibition at 10 µM (rat B1R): 99%
- inhibition at 10 µM (human B1R): 57%

SMILES: COc1cc(C)c(S(=O)(=O)N2CCC[C@H]2COc2nccc(N3CCC4(CC3)C(=O)NCN4c3ccccc3)n2)c(C)c1 [G_CC-035, 8-[2-[[(2S)-1-(4-methoxy-2,6-dimethylphenyl)sulfonyl-2-pyrrolidinyl]methoxy]-4-pyrimidinyl]-4-phenyl-2,4,8-triazaspiro[4.5]decan-1-one]
- inhibition at 10 µM (rat B1R): 99%
- inhibition at 10 µM (human B1R): -1%

SMILES: COc1cc(C)c(S(=O)(=O)N(CCOc2ccnc(N3CCC(Oc4ccncc4)CC3)n2)C2CC2)c(C)c1 [Example H-005, N-cyclopropyl-4-methoxy-2,6-dimethyl-N-[2-[[2-[4-(4-pyridyloxy)-1-piperidinyl]-4-pyrimidinyl]oxy]ethyl]benzenesulfonamide]
- inhibition at 10 µM (rat B1R): 97%
- inhibition at 10 µM (human B1R): 98%

SMILES: COc1cc(C)c(S(=O)(=O)N(CCN(C)c2nccc(N3CCC4(CCN(c5ccncc5)CC4)CC3)n2)C2CC2)c(C)c1 [Example I-005, N-cyclopropyl-4-methoxy-2,6-dimethyl-N-[2-[methyl-[4-(9-pyridin-4-yl-3,9-diazaspiro[5.5]undecan-3-yl)-pyrimidin-2-yl]-amino]-ethyl]-benzenesulfonic acid amide]
- inhibition at 10 µM (rat B1R): 111%
- inhibition at 10 µM (human B1R): 96%

SMILES: COc1cc(C)c(S(=O)(=O)N(CCOc2cc(N3CCC4(CCN(c5ccncc5)CC4)CC3)ncn2)C2CC2)c(C)c1 [Example I-001, N-cyclopropyl-4-methoxy-2,6-dimethyl-N-[2-[[6-[9-(4-pyridyl)-3,9-diazaspiro[5.5]undecan-3-yl]-4-pyrimidinyl]oxy]ethyl]benzenesulfonamide]
- inhibition at 10 µM (rat B1R): 88%
- inhibition at 10 µM (human B1R): 98%

SMILES: COc1cc(C)c(S(=O)(=O)N(C)CCOc2ccnc(N3CCC(CCN4CCCC4)CC3)n2)c(C)c1 [Example H-001, 4-methoxy-N,2,6-trimethyl-N-[2-[[2-[4-(2-1-pyrrolidinylethyl)-1-piperidinyl]-4-pyrimidinyl]oxy]ethyl]benzenesulfonamide]
- inhibition at 10 µM (rat B1R): 99%
- inhibition at 10 µM (human B1R): 44%

SMILES: COc1cc(C)c(S(=O)(=O)N(CCOc2nccc(N3CCC(O)(c4cccnc4)CC3)n2)C2CC2)c(C)c1 [Example G-008, N-cyclopropyl-N-[2-[[4-[4-hydroxy-4-(3-pyridyl)-1-piperidinyl]-2-pyrimidinyl]oxy]ethyl]-4-methoxy-2,6-dimethylbenzenesulfonamide]
- inhibition at 10 µM (rat B1R): 98%
- inhibition at 10 µM (human B1R): 77%

SMILES: COc1cc(C)c(S(=O)(=O)N(C)C(COc2nccc(N3CCC4(CCN(Cc5ccc(F)cc5)C4=O)CC3)n2)c2ccccc2)c(C)c1 (stereo not shown) [G_CC-060, N-[2-[[4-[3-[(4-fluorophenyl)methyl]-4-oxo-3,8-diazaspiro[4.5]decan-8-yl]-2-pyrimidinyl]oxy]-1-phenylethyl]-4-methoxy-N,2,6-trimethylbenzenesulfonamide]
- inhibition at 10 µM (rat B1R): 88%
- inhibition at 10 µM (human B1R): 17%

SMILES: Cc1ccc(Cl)c(S(=O)(=O)N(CCOc2nccc(N3CCC4(CCN(c5ccncc5)CC4)CC3)n2)C2CC2)c1Cl [Example G-021, 2,6-dichloro-N-cyclopropyl-3-methyl-N-[2-[4-(9-pyridin-4-yl-3,9-diazaspiro[5.5]undecan-3-yl)-pyrimidin-2-yl]oxy-ethyl]-benzenesulfonic acid amide]
- inhibition at 10 µM (rat B1R): 86%
- inhibition at 10 µM (human B1R): 90%

SMILES: COc1cc(C)c(S(=O)(=O)N(CCOc2nccc(N3CC(N4CCc5cc(CN6CCC6)ccc5C4)C3)n2)C2CC2)c(C)c1 [Example G-020, N-[2-[[4-[3-[6-(1-azetidinylmethyl)-3,4-dihydro-1H-isoquinolin-2-yl]-1-azetidinyl]-2-pyrimidinyl]oxy]ethyl]-N-cyclopropyl-4-methoxy-2,6-dimethylbenzenesulfonamide]
- inhibition at 10 µM (rat B1R): 101%
- inhibition at 10 µM (human B1R): 95%

SMILES: COc1cc(C)c(S(=O)(=O)N2CCC[C@H]2COc2nccc(N3CCC4(CC3)CCN(c3ccc(F)cc3)C4=O)n2)c(C)c1 [G_CC-048, 3-(4-fluorophenyl)-8-[2-[[(2S)-1-(4-methoxy-2,6-dimethylphenyl)sulfonyl-2-pyrrolidinyl]methoxy]-4-pyrimidinyl]-3,8-diazaspiro[4.5]decan-4-one]
- inhibition at 10 µM (rat B1R): 96%
- inhibition at 10 µM (human B1R): 28%

SMILES: COc1cc(C)c(S(=O)(=O)N2CC(Oc3nccc(N4CCC5(CCN(c6ccncc6)CC5)CC4)n3)C2)c(C)c1 [Example G-018, 3-[2-[[1-(4-methoxy-2,6-dimethylphenyl)sulfonyl-3-azetidinyl]oxy]-4-pyrimidinyl]-9-(4-pyridyl)-3,9-diazaspiro[5.5]undecane]
- inhibition at 10 µM (rat B1R): 93%
- inhibition at 10 µM (human B1R): 99%

— patent US8269000B2, “Substituted pyrimidine and triazine compounds” (Gruenenthal GmbH, priority 2008, dated 2012)
